Assay results from the supplement of paper PMC11061612.

Tests used:
Experiment in all cases: combination Emax (second highest fraction inhibited in the dose matrix, 72 h); higher = more inhibition; extreme values may be limits of the assay
[1] = system: 8505C (Thyroid Gland Carcinoma)
Method in brief: (§1)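 Cell lines grown in DMEM/F12 or RPMI with 10% FBS were plated in 1536-well plates and held 24 hours at 37°C, 5% CO2 before 72 hours of exposure to two-drug dose matrices, with DMSO typically at 0.2%. CellTiter-Glo 2.0 luminescence gave viability, which was converted to inhibition. Vehicle wells were set to 0 and blank wells to 1. Combination Emax is the second-highest inhibition in the matrix, and Bliss excess is the observed combination effect minus the expected EA + EB − EA·EB, where EA and EB are the single-agent effects.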

[2] = system: COR-L279 (Small Cell Lung Carcinoma)
Method in brief: as §1

[3] = system: CW-2 (Colorectal Carcinoma)
Method in brief: as §1

[4] = system: DAN-G (Pancreatic Carcinoma)
Method in brief: as §1

G-361 (Melanoma) = system: G-361 (Melanoma)
Method in brief: as §1

[5] = system: KU812 (Chronic Myelogenous Leukemia)
Method in brief: as §1

[6] = system: KY821 (Acute Myeloid Leukemia)
Method in brief: as §1

[7] = system: MN-60 (B-Lymphoblastic Leukemia)
Method in brief: as §1

[8] = system: MOG-G-CCM (Low Grade Glioma)
Method in brief: as §1

[9] = system: NCCIT (Other Solid Carcinomas)
Method in brief: as §1

[10] = system: NCI-H3122 (Lung Adenocarcinoma)
Method in brief: as §1

[11] = system: NCI-H520 (Squamous Cell Lung Carcinoma)
Method in brief: as §1

[12] = system: NCI-H526 (Small Cell Lung Carcinoma)
Method in brief: as §1

[13] = system: NCI-H929 (Plasma Cell Myeloma)
Method in brief: as §1

[14] = system: PC-3 (Prostate Carcinoma)
Method in brief: as §1

RD (Rhabdomyosarcoma) = system: RD (Rhabdomyosarcoma)
Method in brief: as §1

[15] = system: SNU-398 (Hepatocellular Carcinoma)
Method in brief: as §1

[16] = system: SU-DHL-5 (B-Cell Non-Hodgkin's Lymphoma)
Method in brief: as §1

[17] = system: SUP-B15 (B-Lymphoblastic Leukemia)
Method in brief: as §1

[18] = system: T-T (Esophageal Squamous Cell Carcinoma)
Method in brief: as §1

SMILES | combination Emax [1] | combination Emax [2] | combination Emax [3] | combination Emax [4] | combination Emax (G-361 (Melanoma)) | combination Emax [5] | combination Emax [6] | combination Emax [7] | combination Emax [8] | combination Emax [9] | combination Emax [10] | combination Emax [11] | combination Emax [12] | combination Emax [13] | combination Emax [14] | combination Emax (RD (Rhabdomyosarcoma)) | combination Emax [15] | combination Emax [16] | combination Emax [17] | combination Emax [18]
Cc1cc2ncnn2cc1Nc1ncc2c(n1)n(C1CCOCC1)c(=O)n2C [AZD7648] + CN(C)CCCOc1ccc(-c2ccc3ncc4c(c3c2)n(C2CCOCC2)c(=O)n4C)cn1 [AZD0156] (first compound max 10 µM, 7x7, partner max 1 µM) | 0.189 | 0.4 | 0.207 | 0.597 | 0.217 | 0.467 | 0.417 | 0.201 | 0.256 | 0.282 | 0.423 | 0.614 | 0.15 | 0.855 | 0.257 | 0.195 | 0.194 | 0.66 | 0.174 | 0.246
CC1(C)CCC(CN2CCN(c3ccc(C(=O)NS(=O)(=O)c4ccc(NCC5CCOCC5)c([N+](=O)[O-])c4)c(Oc4cnc5[nH]ccc5c4)c3)CC2)=C(c2ccc(Cl)cc2)C1 [Venetoclax] + CN(C)CCCOc1ccc(-c2ccc3ncc4c(c3c2)n(C2CCOCC2)c(=O)n4C)cn1 [AZD0156] (first compound max 1 µM, 7x7, partner max 1 µM) | 0.2 | 0.522 | 0.174 | 0.264 | 0.115 | 0.403 | 0.926 | 0.285 | 0.385 | 0.275 | 0.264 | 0.354 | 0.856 | 0.691 | 0.21 | 0.161 | 0.234 | 0.455 | 1 | 0.204
CC1(C)CCC(CN2CCN(c3ccc(C(=O)NS(=O)(=O)c4ccc(NCC5CCOCC5)c([N+](=O)[O-])c4)c(Oc4cnc5[nH]ccc5c4)c3)CC2)=C(c2ccc(Cl)cc2)C1 [Venetoclax] + C[C@@H](Nc1cc(F)cc(F)c1)c1cc(C(=O)N(C)C)cc2c(=O)cc(N3CCOCC3)oc12 [AZD8186] (first compound max 1 µM, 7x7, partner max 3 µM) | 0.109 | 0.394 | 0.0925 | 0.0841 | 0.248 | 0.205 | 1 | 0.418 | 0.398 | 0.177 | 0.134 | 0.488 | 0.799 | 0.811 | 0.312 | 0.265 | 0.166 | 0.984 | 1 | 0.172
CN(CCO)CC[C@H](CSc1ccccc1)Nc1ccc(S(=O)(=O)NC(=O)c2ccc(N3CCC([C@@H](O)c4ccccc4-c4ccc(Cl)cc4)CC3)cc2)cc1S(=O)(=O)C(F)(F)F [AZD4320] + C[C@@H]1COCCN1C2=NC(=NC(=C2)C3(CC3)[S@](=N)(=O)C)C4=C5C=CNC5=NC=C4 [AZD6738] (first compound max 1 µM, 7x7, partner max 10 µM) | 0.59 | 1 | 0.49 | 0.765 | 0.629 | 0.942 | 1 | 0.51 | 0.783 | 0.727 | 0.675 | 0.696 | 0.977 | 0.739 | 0.584 | 0.781 | 0.77 | 1 | 1 | 0.561
CC1(C)CCC(CN2CCN(c3ccc(C(=O)NS(=O)(=O)c4ccc(NCC5CCOCC5)c([N+](=O)[O-])c4)c(Oc4cnc5[nH]ccc5c4)c3)CC2)=C(c2ccc(Cl)cc2)C1 [Venetoclax] + CCN(CCO)CCCOc1ccc2c(Nc3cc(CC(=O)Nc4cccc(F)c4)[nH]n3)ncnc2c1 [AZD2811] (first compound max 1 µM, 7x7, partner max 1 µM) | 0.211 | 0.833 | 0.177 | 0.21 | 0.285 | 0.65 | 0.978 | 0.297 | 0.485 | 0.282 | 0.33 | 0.258 | 0.928 | 0.391 | 0.245 | 0.172 | 0.515 | 0.778 | 1 | 0.181
